The text below walks through data of patent US20250017888A1, “COMPOUNDS FOR TREATING DISEASES ASSOCIATED WITH HYALURONAN OVERPRODUCTION” (THE ROYAL VETERINARY COLLEGE, priority 2021, published 2025).

pIC50: −log10 of the molar value.

In assay [1] the test system is Str/ort mice. The assay is described as follows: Histology and grading of articular cartilage lesions in Str/ort mice. Format: in vivo, mouse. On the procedure:
At 10-13 weeks of age, 21 male Str/ort mice (n=7/group) were assigned randomly to vehicle, hylin-betaine and xantho-betaine groups and were treated intraperitoneally 18 weeks with either vehicle (5% DMSO in 95% peanut oil), 50 mg/kg compound of Example 1 (“hylin-betaine”) in 5% DMSO and 95% peanut oil or 50 mg/kg compound of Example 2 (“xantho-betaine”) in 5% DMSO and 95% peanut oil. Dissected right knees were fixed in neutral buffered formalin, decalcified (Immunocal, Quartett, Berlin), wax-embedded and 6 μm coronal sections cut. Multiple sections (five/slide) from 120 μm intervals across the whole joint were stained with Tollidine blue (0.1% in 0.1 M acetate buffer, pH 5.6) and AC lesion severity graded. Sections from right vehicle, hylin-betaine and xantho-betaine treated Str/ort joints were stained with Safranin O. Sections were dewaxed, and AC lesion severity was scored in Str/ort mice by the methods of Chambers et al., (Chambers et al Expression of collagen and aggrecan genes in normal and osteoarthritic murine knee joints. Osteoarthritis and cartilage/OARS, Osteoarthritis Research Society. 2002; 10(1):51-61) consistent with an internationally-recognized system. Briefly, grade 0: normal; grade 1: rough surface or superficial zone lesions; grade 2: lesion down to the intermediate zone; grade 3: lesions down to tidemark or loss of AC; grades 4 and 5: AC loss across between 20% and 50% or 50-80% of condylar surface; grade 6: loss with subchondral bone exposure. Multiple slides (˜10), each containing five 6 μm sections sampled at 120 μm intervals spanning each entire joint were graded. Grading in each joint compartment (lateral/medial, tibia/femur) allowed for a maximum (most severe) grade to be assigned in each section, and used to produce an overall ‘average’ maximum grade in each group of mice, for the entire joint and for each compartment. In addition, a mean score was produced for each joint and for each compartment and these similarly used to produce an overall ‘average’ mean grade in each group of mice. Mean grades provide a measure of the ‘extent’ of AC lesion (representing relative volume) in each joint/compartment.

The test system of assay [2] is chondrosarcoma cells (SW1353). Briefly: Alamar blue staining of chondrosarcoma. Format: cell-based. Conditions: Homo sapiens. On the procedure:
The hyaluronan synthase activity (Prehm, P. and Schumacher, U., Biochem. Pharmacol. 2004, 68, 1401-1410), the cytotoxicity of the drugs (O'Brien, J. et al., Eur. J. Biochem. 2000, 267, 5421-5426), proteoglycan synthesis rate, hyaluronan (Prehm, P. J. Rheumatol., 2005, 32, 690-696) and proteoglycan (Bjornsson, S. Anal. Biochem. 1993, 210, 282-291) were determined as described. The effect of the prenylflavonoids on the MRP5 export rate was measured with fluorescein diacetate as described (Schulz, T., Schumacher, U., and Prehm, P., J Biol. Chem., 2007, 282, 20999-21004). The determination of the IC50 values on the phosphodiesterase 5 was performed according to the instructions of BPS Bioscience. The culture of bovine chondrocytes in alginate beads and of explants of bovine cartilage was described previously (Deiters, B. and Prehm, P. Arthritis Res. Ther., 2008, 10, R8; Prehm, P. J. Rheumatol. 2005, 32, 690-696). Osteoarthritic reactions were induced in chondrocytes growing in alginate beads by incubation with medium containing 10 ng/ml of II-17 for 6 days, and in cartilage explants with 10 ng/ml of II-17 and 5 ng/ml of II-1α. The supernatants were withdrawn and stored at −20° C. for later analysis. The explants were weighed and extracted with 1 ml of 4 M guanidinium-HCl for 72 hours at 4° C. The proteoglycan concentrations were determined in the extracts.
Chondrosarcoma cells (SW1353 from the American Type Culture Collection) were grown in Dulbecco's medium supplemented with streptomycin/penicillin (100 units of each/ml), 10% foetal calf serum or in serum free Quantum medium supplemented with streptomycin/penicillin (100 units of each/ml), kanamycin (100 units/ml).

Assay [3] has as its system Str/ort mice. Briefly: Micro-CT of tibial trabecular and cortical bone in Str/ort mice. It counts as in vivo, mouse. On the procedure:
At 10-13 weeks of age, 21 male Str/ort mice (n=7/group) were assigned randomly to vehicle, hylin-betaine and xantho-betaine groups and were treated intraperitoneally 18 weeks with either vehicle (5% DMSO in 95% peanut oil), 50 mg/kg compound of Example 1 (“hylin-betaine”) in 5% DMSO and 95% peanut oil or 50 mg/kg compound of Example 2 (“xantho-betaine”) in 5% DMSO and 95% peanut oil. Micro-CT scanning and analysis were performed as described previously. Briefly, tibiae from vehicle, hylin-betaine and xantho-betaine treated groups were scanned using the Skyscan 1172 (Skyscan, Kontich, Belgium), with x-ray tube operated at 50 kV and 200 Micro-A, 1600 ms exposure time with a 0.5 mm aluminium filter and a voxel size of micro-m 5. The scanning time for each sample was approximately 2 hours. The slices were then reconstructed using NRecon 1.6.9.4 (Skyscan, Kontich, Belgium). 2D/3D analyses were performed using CTAn 1.15.4.0+ version software (Skyscan, Kontich, Belgium). Additionally, 3D visualization and production of colour-coded images of trabecular, cortical and skull bones were conducted using Avizo 9.0.0 software (FEI, Oregon USA). • a. Trabecular analysis: prior to analysis, Micro-CT images were re-oriented in DataViewer 1.5.0 (Skyscan, Kontich, Belgium), such that the cross-section within the transverse plane was perpendicular to the long axis of the bone. Tibial length was measured in CTAn 1.15.4.0+ software using a straight line measuring tool and the appearance of the trabecular ‘bridge’ connecting the two primary spongiosa bone ‘islands’ was set as reference point for analysis of the metaphyseal trabecular bone adjacent to the epiphyseal growth plate. 5% of the total bone length from this point (towards the diaphysis) was utilised for trabecular analysis of the proximal tibia. The trabecular region of interest was drawn freehand using the selection tool of CTAn, a few voxels away from the endocortical surfaces in order to avoid inclusion of remnants of primary spongiosa associated with cortical bone. The selected trabecular regions of interests were analysed using CTAn BatMan software (Skyscan, Kontich, Belgium) and morphometric parameters were recorded. • b. Whole bone cortical analysis: Whole bone analysis was performed on datasets derived from CT scans using BoneJ (version 1.4.0), an ImageJ plugin. Following segmentation, alignment and removal of fibula from the dataset, a minimum bone threshold was selected using a histogram based method in ImageJ which utilises all pixels in a stack to construct a histogram and was further confirmed using ImageJ “threshold function”. The threshold ranged between 22000-22100 and was applied to all datasets to separate higher density bone from soft tissues and air. This threshold was used in “Slice Geometry” function within BoneJ to calculate bone cross sectional area (CSA), second moment of area around the minor axis (Imin), second moment of area around the major axis (Imax), mean thickness determined by local thickness in two dimensions (Ct.Th), ellipticity and resistance to torsion (J). The most proximal (15%) and the most distal portions (25%) of tibial length were excluded from analysis, as these regions include trabecular bone.

The mark [4] stands for this setting: 50 mg/kg intraperitoneally, 18 weeks, vs vehicle.

In the case of `COc1cc(O)c(CC=C(C)C)c(O)c1C(=O)/C=C/c1ccc(OC(=O)C[N+](C)(C)C)cc1.[Cl-]` [Xantho-betaine, (E)-2-(4-(3-(2,4-dihydroxy-6-methoxy-3-(3-methylbut-2-en-1-yl)phenyl)-3-oxoprop-1-en-1-yl)phenoxy)-N,N,N-trimethyl-2-oxoethanaminium chloride], the “effect on articular cartilage lesions / development of OA (overall)” value in the assay with Str/ort mice [1] (setting [4]) is listed as “no such protection”. In addition, the “maximum OA score” value in the assay with Str/ort mice [1] (vs vehicle treated Str/ort mice) is given as “not found to be statistically significant”. Besides, the pIC50 (commonly the IC50 on a negative log10 scale, so that one unit is a factor of ten) in assay [2] was 3.56. Moreover, the “metaphyseal trabecular bone architecture and mass (tibial length, BV/TV, TV, BV, eccentricity, thickness, separation, number)” value in the assay with Str/ort mice [3] (setting [4]) is listed as “do not alter”. Moreover, in the assay on Str/ort mice [3] (apart from one distal region and a region close to tibio-fibula junction), the “cortical cross-sectional area (CSA)” value is on record as “do not significantly”. Also, the “predicted tibial resistance to torsion (J)” value with Str/ort mice [3] (multiple regions across tibial length, vs vehicle) is listed as “higher”. Further, the “mean cortical cross-sectional thickness” value in the assay with Str/ort mice [3] (multiple regions from −15-60% tibial length, vs vehicle) was “higher in some regions and lower in other regions”. The “second moment of area around minor axis (Imin)” value in the assay with Str/ort mice [3] (vs vehicle, one region proximally) is reported as “significantly lowers”. The tibial ellipticity result in the assay on Str/ort mice [3] (vs vehicle, region ˜40-50% along the tibia) was “greater ellipticity”. Moreover, the “second moment of area around major axis (Imax)” value in the assay with Str/ort mice [3] (vs vehicle, ˜35-55% of tibial length) is “significantly increased”.
